Read-outs that look alike come from different tables or passages of the source.
Tests used:
ABL1 T315I = biological target: T1, ABL1 T315I (Homo sapiens, UniProt P00519, T315I); assay: Z′-LYTE assay, ABL1 T315I; format: biochemical
T1 construct: The ABL1 variant polypeptides utilized contained the same polypeptide as the “isoahABL1(wt)” polypeptide except that each contained one corresponding amino acid substitution
Description: (§1) This Example describes a cell-free assay utilized to identify candidate compounds that bind to and inhibit protein kinase (PK) and PK variants. One assay is referred to as a “Z′-LYTE assay” and is an example of a labeled peptide cleavage assay. The fluorescence-based assay relies on the differential sensitivity of a small, dual-end-labelled peptide to cleavage by a protease, dependent on the phosphorylation state of the peptide (FIG. 1). The peptide substrate is end-labelled with two distinct fluorophores that comprise a Fluorescence Resonance Energy Transfer (FRET) pair.
(§2) In the absence of inhibitor, the kinase transfers the gamma-phosphate from ATP to the single, unique tyrosine, serine or threonine in the synthetic FRET peptide. The reaction conditions are titrated such that 10-40% of the peptide substrate is phosphorylated. In a second reaction, a site-specific protease that only recognizes and cleaves the non-phosphorylated FRET peptide is added. Cleavage interferes with FRET between the donor (i.e., coumarin) and the acceptor (i.e., fluorescein) fluorophores on the FRET-peptide substrate, unlike the phosphorylated, uncleaved peptide.
(§3) The Test Compounds are screened in 1% DMSO (final) in the well.
(§4) All Peptide/Kinase Mixtures are diluted to a 2× working concentration in the appropriate Kinase Buffer. The 2×ABL1 polypeptide/Tyr 02 substrate peptide mixture is prepared in 50 mM HEPES pH 7.5, 0.01% BRIJ-35, 10 mM MgCl2, 1 mM EGTA. The final 10 μL Kinase Reaction contains 0.3-1.2 ng ABL1 (or 1.36-6 ng ABL1(T315I)) and 2 μM Tyr 02 in 50 mM HEPES, pH 7.5, 0.01% BRIJ-35, 10 mM MgCl2, 1 mM EGTA. After the 1-hour Kinase Reaction incubation, 5 μL of a 1:128 dilution of Development Reagent A is added. The ABL1(wt) polypeptide utilized for the assay described in this Example was the “isoahABL1(wt)” polypeptide described herein (SEQ ID NO:4), which is referred to as “ABL1” in Table 1 and “ABL1(wt)” or “WT” in Table 3 of this Example. The ABL1 variant polypeptides utilized contained the same polypeptide as the “isoahABL1(wt)” polypeptide except that each contained one corresponding amino acid substitution chosen from E255K, F317I, F317L, G250E, T315I or Y253F. […]
(§5) All ATP Solutions are diluted to a 4× working concentration in Kinase Buffer (50 mM HEPES, pH 7.5, 0.01% BRIJ-35, 10 mM MgCl2, 1 mM EGTA). The ATP Km apparent (Km app) is previously determined using a Z′-LYTE assay.
(§6) Bar-coded Corning, low volume NBS, black 384-well plate (Corning Cat. #4514) • 1. […] Read on fluorescence plate reader and analyze the data

ABL1(wt) = ABL1(wt) (Homo sapiens, UniProt P00519); assay: Z′-LYTE assay (labeled peptide cleavage), ABL1(wt); format: biochemical
Description: as §1, §2, §3, §4, §5, §6
A known inhibitor control standard curve, 10-point titration, is run for each individual kinase on the same plate as the kinase to ensure the kinase is inhibited within an expected IC50 range previously determined. […]

NALM-21 = assay: In vitro cytotoxic activity (CellTiterGlo), NALM-21 (ALL); format: cell-based; conditions: Homo sapiens; 48-hours; read-out: NALM-21 LD50
Description: Non-metabolized targeted toxicity, or general toxicity, of compounds was assessed by treating a panel of selected cell lines in culture with a dilution series of test compounds and the lethal dose that will kill half of the cells (i.e., the LD50) was determined. Compounds herein were assayed against a panel of cytokine-independent Philadelphia chromosome (BCR-ABL1 translocation) positive (Ph+) leukemia and lymphoma cell lines along with several control cell lines that were ABL1-independent. The panel included murine cell lines BaF3-wildtype (wt), BaF3-mutants (BaF3-wt cells engineered to be reliant on various kinase domain mutations with the BCR-ABL1 fusion protein), and various ALL and CML human cell lines, including SD-1, TOM-1, NALM-21, K562, Jeko-1, BV173, and KCL-22.
To test the cytotoxic activity of compounds herein, 1.6E4 cells were plated in 96-well plates at a final volume of 135 μL per well. Compounds were then added to the wells. In general, final concentrations of compounds started at a maximum concentration of […] and were diluted by half-log concentrations down to a final concentration of 0.316 nM. However, different cell lines required varying drug concentration ranges for optimal LD50 calculations. To create half-log dilutions, 40 mM DMSO solutions of compounds were diluted in half-log iterations to generate 400× starting concentration of compounds in DMSO. The 400× compound solutions were then diluted by 40-fold by adding 5 μL of 400× DMSO stock to 195 μL cell culture media, generating 10× drug concentrations in cell culture media. Then 15 μL of the 10× drug solutions were added to the 135 μL volume of cell suspension, resulting in 1× final drug concentrations with 0.25% DMSO in all wells. 48-hours after adding compounds, cells were measured for relative viability to generate cytotoxicity curves associated with the varying concentrations of compounds. […] LD50 values were measured by normalizing luminescence intensity to the lowest drug concentration. GraphPad Prism was used to plot and calculate LD50 values from the cytotoxic kill curves. Curves were fit to a non-linear regression model, with compound concentration vs. response and variable slope (four parameters).

Compound: Cc1ccc(Nc2ncc3cccc(-c4ccc(F)cc4OC(C)C)c3n2)cc1NC(=O)c1ccc(C(=O)N(C)C)cc1 [Cmpd11, N1-(5-((8-(4-fluoro-2-isopropoxyphenyl)quinazolin-2-yl)amino)-2-methylphenyl)-N4,N4-dimethylterephthalamide]
- IC50 (ABL1 T315I; class by IC50 values in Table 5, read-out: inhibitor class of ABL(T315I) according to IC50): < 20 nM
- IC50 (ABL1 T315I; test compounds, Z′-LYTE, read-out: IC50 values for test compounds, ABL1(T315I)): 1.89 nM
- IC50 (ABL1(wt); class by IC50 values in Table 5, read-out: inhibitor class of ABL1(wt) according to IC50): < 20 nM
- IC50 (ABL1(wt); test compounds, Z′-LYTE, read-out: IC50 values for test compounds, ABL1(wt)): 2.93 nM
- IC50 (NALM-21): 446 nM

Source: patent US20260297035A1, “PROTEIN KINASE INHIBITORS AND USES THEREOF” (DELiver Therapeutics, Inc., priority 2023, published 2026)
